Test results published in patent US20260306525A1, “COMBINATION THERAPY GLUCOCORTICOIDS AND GINSENOSIDE” (FYTAGORAS B.V., priority 2023, published 2026).

Experiments:
zebrafish embryos = conditions: in vivo
Protocol: Fish Embryo Acute Toxicity Test (FET) was performed to determine the tolerated doses of the studied compounds. […] A range of three test concentrations (100, 120, and 150 μM) of Rg1, Rh1, and F1 and (25, 50, and 75M) of PPT was used. […] Stock solutions were made in DMSO, and final dilutions in egg water (60 μg/mL Instant Ocean Sea salts and 0.0025% methylene blue), such that the final DMSO concentration were 0.01%. The following controls were used: a negative control (nC, egg water), a solvent control (sC, 0.01% DMSO in egg water), and positive control (pC), 4 mg/L 3,4-dichloroaniline (Sigma-Aldrich, St. Louis, MO, USA) in egg water.
Embryos were collected around at 1.5 hpf and distributed over standard twenty-four well plates (10 embryos per well), with each well containing 2 mL of test solution. […] Five 24-well plates were prepared, each with 3 wells containing the Rg1, F1, or Rh1 solutions (100, 120, 150 μM), 3 wells containing the PPT (25, 50, and 75 μM), two for nC and sC, and one for pC (on each plate, 7 wells remained empty). All solutions were refreshed daily.
The plates were kept at a temperature between 26 and 27° C. and exposed to a 12 h light and 12 h dark cycle. At 96, and 120 hpf, the average survival rate (in %) for all experimental groups was determined. Additionally, hatching was recorded at 48 and 72 hpf. Survival rates for the studied compound and pC-treated groups from the five individual plates were averaged.

gr [1] = assay: qPCR gr mRNA level in zebrafish larvae; assay type: in vivo, zebrafish (Danio rerio); conditions: short-term (6 h) and long-term (5 days); beclomethasone 10 μM, Rg1 50 μM or combination
Protocol: […] Groups of 15 larvae were collected in TRIzol reagent (ThermoFisher) and total RNA was isolated using miRNeasy mini kit (Qiagen, Hilden, Germany). For experiments in HeLa cells, cells were seeded in 6 well plates and after treatment, the cells were removed from the wells using TRIzol reagent and mRNA was isolated using miRNeasy mini kit (Qiagen) according to the manufacturer's instructions. The RNA samples were DNAse-treated utilizing the DNA-free™ DNA Removal Kit (ThermoFisher Scientific). The cDNA synthesis was performed using the iScript cDNA synthesis kit (Bio-Rad Laboratories, Hercules, CA, USA) using 1 μg of RNA per sample. For qPCR, 10 μM of forward primer and 10 μM of reverse primer, 12.5 μl of IQ SYBR Green Supermix (Bio-Rad Laboratories), and 2 μl of cDNA were added to the qPCR reaction mixture. […] The qPCR reactions were performed on a MyiQ-single-color real-time PCR detection system (Bio-Rad Laboratories), with initial denaturation for 3 min, 95° C., and 40 cycles of 15 s at 95.5° C., 15 s at 60° C., and 30 s at 72° C. Cycle threshold values (Ct values, i.e. the cycle numbers at which a threshold value of the fluorescence intensity was reached) were determined for each sample. […] The fold change per sample (compared to the respective control group) was calculated using the […]Ct method.

GR [2] = target: T1, GR (Homo sapiens, UniProt P04150); assay: nuclear translocation of GR in HeLa cells (immunocytochemistry); assay type: cell-based; parameters: nuclear translocation by immunocytochemistry (detected with anti-GR antibody D6H2L); conditions: 6 h
T1 sequence (P04150 1-777): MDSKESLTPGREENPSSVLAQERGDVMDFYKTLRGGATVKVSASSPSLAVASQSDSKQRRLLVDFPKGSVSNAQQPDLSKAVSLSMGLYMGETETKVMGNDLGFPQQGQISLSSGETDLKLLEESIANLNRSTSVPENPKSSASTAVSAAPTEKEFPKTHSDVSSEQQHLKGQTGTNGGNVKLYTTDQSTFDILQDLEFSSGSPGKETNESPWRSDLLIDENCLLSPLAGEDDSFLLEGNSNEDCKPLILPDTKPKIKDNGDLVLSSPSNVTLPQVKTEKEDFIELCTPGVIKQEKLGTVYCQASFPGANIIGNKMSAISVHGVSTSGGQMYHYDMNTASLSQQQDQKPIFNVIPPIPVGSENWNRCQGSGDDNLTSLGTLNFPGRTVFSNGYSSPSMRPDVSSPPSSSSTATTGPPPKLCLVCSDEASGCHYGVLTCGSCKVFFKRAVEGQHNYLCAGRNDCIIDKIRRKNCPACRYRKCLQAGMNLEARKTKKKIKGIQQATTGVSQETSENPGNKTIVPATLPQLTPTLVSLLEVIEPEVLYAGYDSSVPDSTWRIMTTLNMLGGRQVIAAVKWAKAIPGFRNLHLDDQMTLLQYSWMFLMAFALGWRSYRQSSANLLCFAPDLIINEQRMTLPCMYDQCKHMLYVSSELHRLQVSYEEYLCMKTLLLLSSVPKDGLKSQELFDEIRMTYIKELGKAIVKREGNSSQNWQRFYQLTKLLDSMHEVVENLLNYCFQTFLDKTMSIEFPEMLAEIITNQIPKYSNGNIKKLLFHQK
Protocol: HeLa (human cervical cancer) cells were cultured in Dulbecco's Modified Eagle's (DMEM) High Glucose (HG) medium without phenol red supplemented with 10% Fetal Calf Serum (FCS) and 10% Glutamax (Sigma-Aldrich). The cells were maintained at 37° C. and 5% CO2. At 24 h before adding the treatment, the medium was replaced by DMEM HG with 10% charcoal-inactivated serum and 10% Glutamax (Sigma-Aldrich). The cells were exposed to short- and long-term compound treatments. […] Subsequently, TNF-α (10 ng/ml) was added along with the compound treatments for 6 h (this last step was not added in the actinomycin-D and cycloheximide experiments).
To determine the nuclear translocation of GR, immunocytochemistry on GR in Hela cells was performed. The cells were seeded in Nunc™ Lab-Tek™ II Chamber Slide™ System (ThermoFisher Scientific), and cultured in DMEM HG (without phenol red) supplemented with 10% charcoal inactivated serum and […] Glutamax (Sigma-Aldrich) for 48 h. […] In each experiment, 40 randomly selected cells from each treatment group were analyzed. The relative nuclear translocation of the GR was quantified by determining the integrated fluorescence intensity in the nucleus and the whole cell using Fiji ImageJ v1.53c, and these values were corrected for the mean background fluorescence. The percentage of nuclear translocation was assessed by determining the corrected density in the nucleus relative to the corrected density in the whole cell (in %).

## CC(C)=CCC[C@](C)(O[C@@H]1O[C@H](CO)[C@@H](O)[C@H](O)[C@H]1O)[C@H]1CC[C@]2(C)[C@@H]1[C@H](O)C[C@@H]1[C@@]3(C)CC[C@H](O)C(C)(C)[C@@H]3[C@@H](O)C[C@]12C [F1]
Zebrafish embryos
  concentration until which no effects on hatching and survival were observed: 100 µM
  concentration with minimal effects on hatching and survival: 120 µM

## CC(C)=CCC[C@](C)(O[C@@H]1O[C@H](CO)[C@@H](O)[C@H](O)[C@H]1O)[C@H]1CC[C@]2(C)[C@@H]1[C@H](O)C[C@@H]1[C@@]3(C)CC[C@H](O)C(C)(C)[C@@H]3[C@@H](O[C@@H]3O[C@H](CO)[C@@H](O)[C@H](O)[C@H]3O)C[C@]12C [Rg1, (3β,6α, 12β)-3,12-Dihydroxydammar-24-ene-6,20-diyl bis-β-D-glucopyranoside]
Gr [1]
  gr mRNA level: did not affect the gr mRNA level
GR [2]; Rg1 5, 10 and 20 μM, vs vehicle
  nuclear translocation level of GR: only increased the translocation level compared to the vehicle treatment at 20 μM, still inducing only partial translocation

## CC(C)=CCC[C@](C)(O)[C@H]1CC[C@]2(C)[C@@H]1[C@H](O)C[C@@H]1[C@@]3(C)CC[C@H](O)C(C)(C)[C@@H]3[C@@H](O)C[C@]12C [PPT, Protopanaxatriol]
Zebrafish embryos
  concentration until which no effects on hatching and survival were observed: 50 µM
  concentration with considerable effects on hatching and survival: 75 µM

## C[C@H]1C[C@H]2[C@@H]3CCC4=CC(=O)C=C[C@]4(C)[C@@]3(Cl)[C@@H](O)C[C@]2(C)[C@@]1(O)C(=O)CO [beclomethasone, reference compound]
Gr [1]
  gr mRNA level: suppressed the gr mRNA level only after long-term treatment
GR [2]; beclomethasone 0.01 μM, vs vehicle
  nuclear translocation level of GR: significantly increased the translocation level compared to vehicle
GR [2]; beclomethasone 0.1 and 1 μM
  nuclear translocation level of GR: maximal nuclear translocation was observed
